According to the COVID Moonshot data (paper PMC7615835):
pIC50: −log10 of the molar value. Values joined by “and” are separate entries in the source; they are usually repeats but may differ in a detail not shown here. Equal entries are not always repeated.

The molecules below were run against SARS-CoV-2 Main Protease (SARS-CoV-2) (UniProt P0DTD1).

| SMILES | pIC50 |
| --- | --- |
| CC(C)(C)c1ccc(N(C(=O)c2ccco2)C(C(=O)NCc2ccccc2)c2cccnc2)cc1 (configuration not stated) | 5.36 |
| CS(=O)(=O)c1ccc2c(NC(=O)C3CN(CC(=O)NCC(F)(F)F)C(=O)c4ccc(Cl)cc43)cncc2c1 (configuration not stated) | 6.54 |
| Cc1cc(Br)cc(C)c1Nc1cc(Cl)cc(CC(=O)Nc2cncc3ccccc23)c1 | 5.77 |
| O=C(CCl)N1CCCN(S(=O)(=O)c2c(F)cccc2F)CC1 | 4.69 |
| N#Cc1cnn(-c2ccccn2)c1Nc1cc(Cl)cc(CC(=O)Nc2cncc3ccccc23)c1 | 5.76 |
| CC(C)CS(=O)(=O)N1Cc2ccc(Cl)cc2C(C(=O)Nc2cncc3ccccc23)C1 (configuration not stated) | 6.97 |
| Cc1ccncc1NC(=O)Cc1cc(Cl)cc(NC2(C)CCC(F)(F)CC2)c1 | 4.83 |
| O=C(Cc1cccc(Cl)c1)Nc1cncc2cnoc12 | 4.62 |
| CNC(=O)C1(CC(=O)Nc2cncc3ccccc23)CCOc2ccc(Cl)cc21 (configuration not stated) | 4.51 |
| O=C(Cc1cc(Cl)cc(Nc2cccnc2Br)c1)Nc1cncc2ccccc12 | 5.68 |
| COc1ccc(Cl)c(Nc2cc(Cl)cc(CC(=O)Nc3cncc4ccccc34)c2)c1 | 5.77 |
| Cc1ccncc1NC(=O)Cc1cc(Cl)cc(-c2ccc(S(C)(=O)=O)cc2Cl)c1 | < 4.00 |
| Cn1ccc2cc(N(C(=O)c3cocn3)C(C(=O)NCCc3cccc(F)c3)c3cccnc3)ccc21 (configuration not stated) | 4.62 |
| C=CC(=O)N(c1ccc2ncsc2c1)C(C(=O)Nc1cccc(CC)c1)c1cccnc1 (configuration not stated) | 4.20 and 4.26 |
| CC(C)(C)c1ccc(N(C(=O)c2cocn2)C(C(=O)NC2CCOC2)c2cccnc2)cc1 (configuration not stated) | 5.56 |
| CS(=O)(=O)c1ccc2c(NC(=O)C3CCS(=O)(=O)c4ccc(Cl)cc43)cncc2c1 (configuration not stated) | 6.13 |
| CC1(CS(=O)(=O)N2Cc3ccc(Cl)cc3C(C(=O)Nc3cncc4cc(S(C)(=O)=O)ccc34)C2)CS(=O)(=O)C1 (configuration not stated) | 7.08 and 6.83 |
| c1ccc(-c2cc(Sc3nnc(-c4cccs4)o3)n3ncnc3n2)cc1 | 6.66 |
| CN(C)CC1(C(=O)Nc2cncc3ccccc23)CCOc2ccc(Cl)cc21 (configuration not stated) | 4.94 |
| CC(C)(C)NC(=O)CN1CC(C(=O)Nc2cncc3cc(F)ccc23)c2cc(Cl)ccc2C1=O (configuration not stated) | 6.00 |
| O=C(Nc1cncc2cccc(Cl)c12)C12CC(C1)Oc1ccc(Cl)cc12 | 4.12 |
| NCc1cn(CC(=O)N(Cc2ccsc2)c2ccc(-c3ccccc3)cc2)nn1 | < 4.00 |
| Cc1ccc([N+](=O)[O-])c(Nc2cc(Cl)cc(CC(=O)Nc3cncc4ccccc34)c2)c1 | 5.65 |
| Cc1cc(C)n(C2CCCN(C(=O)c3c[nH]c4ncccc34)C2)n1 (configuration not stated) | < 4.00 |
| O=C1C(=O)N(Cc2ccc(Br)cc2)c2ccccc21 | < 3.70 |

| SMILES | pIC50 |
| --- | --- |
| O=C(Cc1cc(Cl)cc(Nc2ccc3nccnc3c2Br)c1)Nc1cncc2ccccc12 | 5.71 |
| O=C1NCC(C(=O)Nc2cnn3ccccc23)c2cc(Cl)ccc21 (configuration not stated) | 5.15 |
| O=C(Cc1cc(Cl)cc(N2CCN(c3ccc(Br)cn3)CC2)c1)Nc1cncc2ccccc12 | 5.50 |
| COc1c(C(=O)N(c2ccc(C(C)(C)C)cc2)C(C(=O)NCCc2cccc(F)c2)c2cccnc2)[nH]c(=O)[nH]c1=O (configuration not stated) | < 4.00 |
| Cn1c(=O)c2cc(C(=O)N(c3ccc(C(C)(C)C)cc3)C(C(=O)NCCc3cccc(F)c3)c3cccnc3)n(C)c2n(C)c1=O (configuration not stated) | < 4.00 |
| Cn1cnc(C(=O)N(c2ccc(C(C)(C)C)cc2)C(C(=O)NCCc2cccc(F)c2)c2cccnc2)cc1=O (configuration not stated) | < 4.00 |
| Nc1ccccc1-c1nc2ccccc2n1-c1cc(Cl)cc(CC(=O)Nc2cncc3ccccc23)c1 | 5.29 |
| O=C(Cc1cccc(Cl)c1)NC1=NC(=O)c2ccccc21 | < 4.00 |
| O=C(Cc1cc(Cl)cc(N2CCn3c(nnc3C(F)(F)F)C2)c1)Nc1cncc2ccccc12 | 5.70 |
| O=C(Nc1cncc2ccccc12)C(CO)c1ccc(Cl)c(Cl)c1 (configuration not stated) | 4.71 |
| O=C(Nc1cncc2ccccc12)C1CN(S(=O)(=O)C2COC2)Cc2ccc(Cl)cc21 (configuration not stated) | 6.61 |
| O=C(Cc1cc(Cl)cc(Nc2c(F)cccc2Br)c1)Nc1cncc2ccccc12 | 5.47 |
| O=C(Cc1cc(Cl)cc(Nc2ncnc(Cl)c2Cl)c1)Nc1cncc2ccccc12 | 5.69 |
| CC(C)(C)c1ccc(N(C(=O)c2cc(=O)c3c(O)cccc3o2)C(C(=O)NCCc2cccc(F)c2)c2cccnc2)cc1 (configuration not stated) | < 4.00 |
| O=C(NCCc1cccc(F)c1)C(c1cccnc1)N(C(=O)c1cocn1)C1CC2CCCC2C1 (configuration not stated) | < 4.00 |
| Cc1ccncc1NC(=O)C1(c2cccc(Cl)c2)CC1 | < 4.00 |
| N#CC1(CS(=O)(=O)N2Cc3ccc(Cl)cc3[C@@H](C(=O)Nc3cncc4ccccc34)C2)CNC1 (stereo in doubt) | 5.79 |
| O=C(Cc1cc(Cl)cc(NCCc2ccc(Cl)cc2Cl)c1)Nc1cncc2ccccc12 | 5.41 |
| O=C(CCl)N1CCN(S(=O)(=O)c2ccsc2)[C@H](C(=O)N2CCN(c3ccccc3)CC2)C1 (stereo in doubt) | 5.70 |
| O=C(NCCc1nnc2n1CCC2)c1cc(O)nc2ccccc12 | < 4.00 |
| NC(=O)C1Cc2nc[nH]c2CN1C(=O)CC1(C(=O)Nc2cncc3ccccc23)CCOc2ccc(Cl)cc21 (configuration not stated) | 5.03 |
| O=C(NCCc1cccc(F)c1)C(c1cccnc1)N(C(=O)c1cocn1)C1CCN(c2ccccc2F)C1 (configuration not stated) | < 4.00 |
| Cc1nn2c(CNc3ccc(Cn4cncn4)cc3)c(C)nc2s1 | < 4.00 |
| O=C(Cc1cc(Cl)cc(N(C2CCCCC2)C2CCCCC2)c1)Nc1cncc2ccccc12 | 5.64 |
| O=c1c2ccccc2c(-c2ccc(Br)cc2)nn1CC(O)CN1CCOCC1 (configuration not stated) | < 4.00 |

| SMILES | pIC50 |
| --- | --- |
| COc1cc(C)ccc1CN(C(=O)c1cocn1)C(C(=O)NCCc1cccc(F)c1)c1cccnc1 (configuration not stated) | < 4.00 |
| CCCC(C(=O)Nc1cnccc1C)c1cccc(Cl)c1 (configuration not stated) | 4.75 and 4.77 |
| O=C(Nc1cccnc1)[C@@H](c1ccccc1)N1Cc2ccccc2C1=O (stereo in doubt) | < 4.00 |
| COCc1ccccc1CNS(=O)(=O)c1c(C)sc(C)c1C | < 4.00 |
| Cc1ccncc1C(C(=O)NCCc1cccc(F)c1)N(C(=O)c1ccco1)c1ccc(C(C)(C)C)cc1 (configuration not stated) | 6.95 |
| CC(NC(=O)c1cc2n(n1)CCO2)(C(=O)Nc1cncc2ccccc12)c1ccc(Cl)c(Cl)c1 (configuration not stated) | 5.16 and 4.98 |
| O=C(Cc1cc(Cl)cc(Nc2cnc(Cl)c(Br)c2)c1)Nc1cncc2ccccc12 | 5.51 |
| Cc1ccncc1NC(=O)Cc1cc(Cl)cc(NS(N)(=O)=O)c1 | 4.95 |
| Cc1ccncc1NC(=O)Cc1cc(Cl)cc(/C=C(/c2ccccc2)C(F)(F)F)c1 | 4.64 |
| CN(Cc1nc2ccccc2s1)C(=O)c1ccc2c(c1)nnn2C | < 4.00 |
| CNC(=O)CN1C[C@@H](C(=O)Nc2cncc3cccc(Cl)c23)c2cc(Cl)ccc2C1=O (stereo in doubt) | 4.84 |
| CC(C(N)=O)c1cc(Cl)cc(CC(=O)Nc2cncc3ccccc23)c1 (configuration not stated) | 5.58 |
| O=C(NCCc1cccc(F)c1)C(c1cccnc1)N(C(=O)c1cnc[nH]1)c1ccc2ncsc2c1 (configuration not stated) | < 4.00 |
| N#Cc1ccc(Nc2cc(Cl)cc(CC(=O)Nc3cncc4ccccc34)c2)cc1Br | 5.67 |
| O=CN1CCC(OC(=O)c2c[nH]nc2-c2ccc(Cl)cc2)CC1 | < 4.00 |
| C=CC(=O)NCc1ccc(C(=O)NCc2cc(C)cc3c(C)c(C)[nH]c23)cc1 | < 4.00 |
| O=C(Cn1nnc2ccccc21)N(Cc1cccc(Cl)c1)c1ccc(N2CCOCC2)cc1 | 5.43 |
| CCCCc1nc(-c2nccn2Cc2ccoc2)c[nH]1 | 4.84 |
| O=C(Cc1cc(Cl)cc(Nc2cc(Cl)c(O)c(Cl)c2)c1)Nc1cncc2ccccc12 | 5.16 |
| CC(=O)N(CC(=O)Nc1ccc(F)c(Cl)c1)c1cccc(C(F)(F)F)c1 | < 4.00 |
| O=C(Cc1cccc(Cl)c1)Nc1cncc2nccnc12 | 4.12 |
| O=C(NCc1nnc2c(=O)[nH]ccn12)c1ccnc2ccnn12 | < 4.00 |
| Cc1ccc2nc(Nc3cc(Cl)cc(CC(=O)Nc4cncc5ccccc45)c3)sc2c1 | 4.64 |
| O=C(Cn1nnc2ccccc21)N(Cc1ccsc1)c1ccc(N2CCCCC2)cc1 | 5.18 |
| O=C(NCCc1cccc(F)c1)C(c1cccnc1)N(C(=O)c1cocn1)c1ccc(S(=O)(=O)C2CCCC2)cc1 (configuration not stated) | < 4.00 |

| SMILES | pIC50 |
| --- | --- |
| CN(C(=O)OC(C)(C)C)[C@H]1CCN(c2cc(Cl)cc(CC(=O)Nc3cncc4ccccc34)c2)C1 (stereo in doubt) | 5.38 |
| C=CC(=O)Nc1cc(C(=O)NC[C@H](Cc2ccccc2)c2ccccn2)ccc1O (stereo in doubt) | < 4.00 |
| Cc1ccc2ncc(NC(=O)Cc3cccc(Cl)c3)n2c1 | 5.05 |
| O=C(NCCCc1nc(=O)[nH][nH]1)C1(c2ccc(F)cc2F)CCC1 | < 4.00 |
| COc1ccc(S(=O)(=O)N2CCN(C(=O)CCl)CC2)cc1 | 4.56 |
| O=C1CCCCN1c1ccc(N(Cc2ccccc2)C(=O)Cc2[nH]nc3ccccc23)cc1 | 4.40 |
| N#CC1(CS(=O)(=O)N2Cc3ccc(Cl)cc3C3(CCN(c4cncc5ccc(F)cc45)C3=O)C2)CC1 (configuration not stated) | 6.08 |
| O=C(NCc1cccc(Cl)c1)c1cncc2ccccc12 | 4.49 |
| Cc1cccc(C2CN(C(=O)CCl)Cc3ccccc32)c1 (configuration not stated) | 5.70 |
| O=C(NCCc1cccc(F)c1)C(c1cccnc1)N(C(=O)c1cocn1)c1ccc2c(c1)CCC(=O)N2CC(F)F (configuration not stated) | 4.61 |
| O=C(Cc1cc(Cl)cc(Nc2nnc(-c3ccncc3)s2)c1)Nc1cncc2ccccc12 | 5.66 |
| N[C@@H](Cc1ccc(O)cc1)C(=O)Nc1cc(Cl)cc(CC(=O)Nc2cncc3ccccc23)c1 (stereo in doubt) | 5.60 |
| O=C(Nc1nn2cnnc2s1)c1csc(-c2ccccc2)n1 | < 4.00 |
| O=C(NCCc1cccc(F)c1)C(c1cccnc1)N(C(=O)c1ccco1)c1ccc(-c2n[nH]c3c2COCC3)cc1 (configuration not stated) | 4.37 |
| O=C(OCC(=O)N1CCC(Cc2ccccc2)CC1)c1cc(=O)[nH]c(=O)[nH]1 | < 4.00 |
| N#Cc1cnn(-c2ccc([N+](=O)[O-])cc2)c1Nc1cc(Cl)cc(CC(=O)Nc2cncc3ccccc23)c1 | 5.74 |
| O=C(NCCc1cccc(F)c1)C(c1cccnc1)N(C(=O)c1ccco1)c1ccc(C2CCCC2)cc1 (configuration not stated) | 6.55 |
| O=C(Cc1cc(Cl)cc(N2CCC(C(F)(F)F)CC2)c1)Nc1cncc2ccccc12 | 5.84 |
| CC(C)Sc1ccccc1Nc1cc(Cl)cc(CC(=O)Nc2cncc3ccccc23)c1 | 5.70 |
| N#CCC1(CS(=O)(=O)N2Cc3ccc(Cl)cc3C3(CCN(c4cncc5ccccc45)C3=O)C2)CC1 (configuration not stated) | 6.47 |
| CC(C)(C)c1ccc(N(C(=O)c2ccc(O)c(=O)o2)C(C(=O)NCCc2cccc(F)c2)c2cccnc2)cc1 (configuration not stated) | 4.12 |
| CC1(C)Nc2ccccc2C1NC(=O)Cc1cccc(Cl)c1 (configuration not stated) | < 4.00 |
